This note sets out measurements from patent publication US12612424B2, “HPK1 inhibitors and uses thereof” (Regor Pharmaceuticals, Inc., priority 2019, dated 2026).

For one test, the target named is HPK1 (Homo sapiens, UniProt Q92918). Briefly: HPK1 biochemical assay (ADP-GLO Kinase Assay). The following applies: B*: testing performed in a first testing facility; read-out: HPK1 IC50 (nM) Relative, B*. The method in brief: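 HPK1 (0.6 ng/μL final) activity was followed with MBP substrate and 10 μM ATP in Tris pH 7.5/MgCl2/BSA/DTT buffer, measured by ADP-Glo luminescence. Compounds were tested as 3-fold dilutions from 10 μM. IC50 came from a three-parameter logistic fit, with inhibition normalised to high/low controls.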

A further test has as its target T1, JAK3 (Homo sapiens, UniProt P52333).
T1 construct: purchased Thermo fisher PV3855
Briefly: JAK3 biochemical assay (ADP-GLO Kinase Assay). The following applies: for IC50: B*: testing performed in a first testing facility, read-out: JAK3 IC50 (nM) Relative, B*; for JAKs/HPK1 IC50 Ratio, B*: ratio of JAK3 IC50 to HPK1 IC50, first testing facility. Summed up:
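Luminescent ADP-Glo readout after a 60 min, 25 °C reaction of JAK3 (0.78 ng) on Poly(E4Y1) (0.2 μg/μL) at 4 μM ATP, Tris pH 7.5 buffer with MgCl2, BSA and DTT. Compounds tested 10 μM down to 0.508 nM in 3-fold steps; % inhibition normalised to DMSO and reference-compound controls, IC50 from three-parameter fit.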

HPK1, sequence (Q92918 whole entry): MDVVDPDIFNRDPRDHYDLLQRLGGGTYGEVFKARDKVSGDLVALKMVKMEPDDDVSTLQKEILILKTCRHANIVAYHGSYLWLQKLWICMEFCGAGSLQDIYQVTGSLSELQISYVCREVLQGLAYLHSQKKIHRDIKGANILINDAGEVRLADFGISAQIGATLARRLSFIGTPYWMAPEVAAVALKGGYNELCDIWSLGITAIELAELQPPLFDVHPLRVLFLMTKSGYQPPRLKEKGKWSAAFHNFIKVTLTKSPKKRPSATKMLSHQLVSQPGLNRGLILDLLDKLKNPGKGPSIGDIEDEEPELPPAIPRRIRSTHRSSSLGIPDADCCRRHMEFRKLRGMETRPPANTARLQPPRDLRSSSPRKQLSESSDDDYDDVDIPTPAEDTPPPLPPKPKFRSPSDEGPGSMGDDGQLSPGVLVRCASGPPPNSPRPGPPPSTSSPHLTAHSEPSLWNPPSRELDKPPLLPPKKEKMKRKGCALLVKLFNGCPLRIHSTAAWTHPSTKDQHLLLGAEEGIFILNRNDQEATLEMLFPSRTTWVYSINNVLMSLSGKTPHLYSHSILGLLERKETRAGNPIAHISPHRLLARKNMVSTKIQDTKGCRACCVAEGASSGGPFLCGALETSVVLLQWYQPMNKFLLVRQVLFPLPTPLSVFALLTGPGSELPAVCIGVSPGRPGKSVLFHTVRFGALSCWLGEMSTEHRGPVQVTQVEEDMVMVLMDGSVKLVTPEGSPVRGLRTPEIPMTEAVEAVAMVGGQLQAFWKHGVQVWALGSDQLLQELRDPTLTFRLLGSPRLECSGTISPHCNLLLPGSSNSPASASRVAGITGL
T1 sequence (P52333 781-1124 limits assumed): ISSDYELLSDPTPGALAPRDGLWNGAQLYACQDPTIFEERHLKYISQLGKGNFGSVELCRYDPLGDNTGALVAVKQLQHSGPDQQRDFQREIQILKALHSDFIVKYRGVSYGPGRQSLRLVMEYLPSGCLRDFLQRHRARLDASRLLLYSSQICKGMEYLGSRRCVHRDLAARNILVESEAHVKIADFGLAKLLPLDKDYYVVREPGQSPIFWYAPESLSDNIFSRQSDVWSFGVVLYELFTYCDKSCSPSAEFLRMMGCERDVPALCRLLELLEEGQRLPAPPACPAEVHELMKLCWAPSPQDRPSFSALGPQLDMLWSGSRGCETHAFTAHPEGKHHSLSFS

Consider `CNC(=O)Cc1cn(-c2nc(Nc3cc4c(cc3OC)CCN(C)C4)ncc2Cl)c2ccccc12` [Example 136], for which the IC50 at HPK1 is ≤ 100 nM. Also, on JAK3, the IC50 is 500 to 1000 nM and the “JAKs/HPK1 IC50 Ratio, B*” value worked out at 438.

`COc1cc2c(cc1Nc1ncc(Cl)c(-n3cc(CC(=O)NCC#N)c4ccccc43)n1)CN(C)CC2` [Example 137]: the IC50 on HPK1 is ≤ 100 nM. In addition, at JAK3, the IC50 was > 1000 nM and the “JAKs/HPK1 IC50 Ratio, B*” value came to 1304.

For `COc1cc2c(cc1Nc1ncc(Cl)c(-n3cc(CC(=O)O)c4cc(F)ccc43)n1)CN(C)CC2` [Example 138], the half-maximal inhibitory concentration (IC50) on HPK1 is ≤ 100 nM. In addition, at JAK3, the 50% inhibitory concentration (IC50) fell in the range of 100 to 500 nM and the “JAKs/HPK1 IC50 Ratio, B*” value is on record as 382.

As to `COc1cc2c(cc1Nc1ncc(Cl)c(-n3cc(CC(=O)O)c4ccc(F)cc43)n1)CN(C)CC2` [Example 139], on HPK1, the IC50 was ≤ 100 nM. For the same compound, on JAK3, the IC50 was in the range of 100 to 500 nM and the “JAKs/HPK1 IC50 Ratio, B*” value worked out at 520.

For `COc1cc2c(cc1Nc1ncc(Cl)c(-n3cc(CC(=O)O)c4cc(F)c(F)cc43)n1)CN(C)CC2` [Example 140], on HPK1, the IC50 was ≤ 100 nM. Further, on JAK3, the half-inhibitory concentration (IC50) is 500 to 1000 nM and the “JAKs/HPK1 IC50 Ratio, B*” value was 783.

Consider `COc1cc2c(cc1Nc1ncc(Cl)c(-n3nc(CC(=O)O)c4ccccc43)n1)CN(C)CC2` [Example 141], for which, on HPK1, the concentration for half-maximal inhibition (IC50) was ≤ 100 nM. On JAK3, the IC50 was > 1000 nM and the “JAKs/HPK1 IC50 Ratio, B*” value worked out at 541.

Regarding `COc1cc2c(cc1Nc1ncc(Cl)c(-n3cc(C(C)C(=O)O)c4ccccc43)n1)CN(C)CC2` (stereo not drawn) [Example 142], the IC50 was ≤ 100 nM on HPK1 and 500 to 1000 nM at JAK3. The “JAKs/HPK1 IC50 Ratio, B*” value at JAK3 is recorded as 117.

`COC(=O)CC1(C)CN(c2nc(Nc3cc4c(cc3OC)CCN(C)C4)ncc2Cl)c2ccccc21` (stereo not drawn) [Example 145]: the IC50 on HPK1 is ≤ 100 nM. On JAK3, the IC50 was > 1000 nM and the “JAKs/HPK1 IC50 Ratio, B*” value amounted to 476.

Regarding `COc1cc2c(cc1Nc1ncc(Cl)c(N3CC(C)(CC(=O)O)c4ccccc43)n1)CN(C)CC2` (stereo not drawn) [Example 146], the concentration for half-maximal inhibition (IC50) at HPK1 was ≤ 100 nM. On JAK3, the concentration for half-maximal inhibition (IC50) is ≤ 100 nM and the “JAKs/HPK1 IC50 Ratio, B*” value came out at 90.

Regarding `CCOC(=O)CC1(C)CN(c2nc(Nc3cc4c(cc3OC)CCN(C)C4)ncc2Cl)c2ccccc21` (stereo not drawn) [Example 149], the IC50 on HPK1 is ≤ 100 nM. At JAK3, the IC50 is > 1000 nM and the “JAKs/HPK1 IC50 Ratio, B*” value was >944.

Consider `COc1cc2c(cc1Nc1ncc(Cl)c(N3CC(C)(CC(=O)O)c4cc(F)ccc43)n1)CN(C)CC2` (stereo not drawn) [Example 150, 2-(1-(5-Chloro-2-((6-methoxy-2-methyl-1,2,3,4-tetrahydroisoquinolin-7-yl)amino)pyrimidin-4-yl)-5-fluoro-3-methylindolin-3-yl)acetic acid], for which the results for the IC50 at HPK1 and on JAK3 were ≤ 100 nM and 100 to 500 nM, respectively. Also, the “JAKs/HPK1 IC50 Ratio, B*” value on JAK3 is 171.

As for `COc1cc2c(cc1Nc1ncc(Cl)c(N3CC(C)(CC(=O)O)c4ccc(F)cc43)n1)CN(C)CC2` (stereo not drawn) [Example 151], the IC50 at HPK1 and on JAK3 was ≤ 100 nM throughout. Also, the “JAKs/HPK1 IC50 Ratio, B*” value at JAK3 was found to be 187.

Regarding `COc1cc2c(cc1Nc1ncc(Cl)c(N3CC(C)(CC(=O)O)c4cc(F)c(F)cc43)n1)CN(C)CC2` (stereo not drawn) [Example 154], at HPK1, the IC50 is ≤ 100 nM. At JAK3, the 50% inhibitory concentration (IC50) fell in the range of 100 to 500 nM and the “JAKs/HPK1 IC50 Ratio, B*” value was found to be 430.

Consider `CN1CCc2cc(F)c(Nc3ncc(Cl)c(N4CC(C)(CC(=O)O)c5ccccc54)n3)cc2C1` (stereo not drawn) [Example 156], for which the half-maximal inhibitory concentration (IC50) at HPK1 was ≤ 100 nM. Also, on JAK3, the half-maximal inhibitory concentration (IC50) was ≤ 100 nM and the “JAKs/HPK1 IC50 Ratio, B*” value is 29.

In the case of `CCN1CCc2cc(OC)c(Nc3ncc(Cl)c(N4CC(C)(CC(=O)O)c5ccccc54)n3)cc2C1` (stereo not drawn) [Example 157, 2-(1-(5-Chloro-2-((2-ethyl-6-methoxy-1,2,3,4-tetrahydroisoquinolin-7-yl)amino)pyrimidin-4-yl)-3-methylindolin-3-yl)acetic acid], the concentration for half-maximal inhibition (IC50) at HPK1 is ≤ 100 nM. Further, on JAK3, the half-inhibitory concentration (IC50) lay in the range of 100 to 500 nM and the “JAKs/HPK1 IC50 Ratio, B*” value was 176.
